According to patent publication EP4671247A1, “SUBSTITUTED PYRAZOLOPYRIMIDINE COMPOUND AND PHARMACEUTICAL USE THEREOF” (Japan Tobacco Inc., priority 2023, dated 2024):
Read-outs that look alike come from different tables or passages of the source.

Target: T1, NLRP3 inflammasome (Homo sapiens, UniProt Q96P20)
T1 construct: host or cells: THP1-Null cells (PMA-differentiated, LPS-primed, nigericin-stimulated)
Assay: Evaluation of NLRP3 inflammasome inhibitory activity (inhibition of IL-1β production in LPS/Nigericin-stimulated THP1-Null cells, AlphaLISA)
Type: cell-based
Settings: IL-1β production in THP1-Null cells; for IC50: PMA, 1 µg/mL Lipopolysaccharides 3 hours, Nigericin 7.5 µmol/L 1.5 hours; for inhibition at 2.4 µM: test compound at 2.4 µM
Description: The NLRP3 inflammasome inhibitory activity of test compounds were evaluated on the basis of the inhibitory activity of the IL-1β production in THP1-Null cells (Product Number: thp-null, InvivoGen).
The supernatant of the culture was removed, and thereto was added media for assay (25 µL/well) containing 1 µg/mL Lipopolysaccharides (Product Number: L2654, Sigma-Aldrich (registered trademark)). […] The supernatant of the culture was removed. […] A solution containing a test compound (20 µL/well) was added to test compound-setting wells. […] The supernatant of the culture was cryonically stored (set at -20°C) until measurement of IL-1β.
The amount of IL-1β in the culture supernatant was quantitated with AlphaLISA (registered trademark) Human IL-1β Detection Kit (Product Number: AL220C, Perkin Elmer). Fluorescence intensity was measured with a microplate reader EnSpier (Model number: 2300-00J, Perkin Elmer) or EnSight (Model number: HH34000000, Perkin Elmer) according to procedure manuals attached thereto. Inhibition rates of the test compound-setting wells were calculated on the basis of 100% for the blank-setting wells and 0% for the control-setting wells.

T1 sequence (Q96P20 whole entry): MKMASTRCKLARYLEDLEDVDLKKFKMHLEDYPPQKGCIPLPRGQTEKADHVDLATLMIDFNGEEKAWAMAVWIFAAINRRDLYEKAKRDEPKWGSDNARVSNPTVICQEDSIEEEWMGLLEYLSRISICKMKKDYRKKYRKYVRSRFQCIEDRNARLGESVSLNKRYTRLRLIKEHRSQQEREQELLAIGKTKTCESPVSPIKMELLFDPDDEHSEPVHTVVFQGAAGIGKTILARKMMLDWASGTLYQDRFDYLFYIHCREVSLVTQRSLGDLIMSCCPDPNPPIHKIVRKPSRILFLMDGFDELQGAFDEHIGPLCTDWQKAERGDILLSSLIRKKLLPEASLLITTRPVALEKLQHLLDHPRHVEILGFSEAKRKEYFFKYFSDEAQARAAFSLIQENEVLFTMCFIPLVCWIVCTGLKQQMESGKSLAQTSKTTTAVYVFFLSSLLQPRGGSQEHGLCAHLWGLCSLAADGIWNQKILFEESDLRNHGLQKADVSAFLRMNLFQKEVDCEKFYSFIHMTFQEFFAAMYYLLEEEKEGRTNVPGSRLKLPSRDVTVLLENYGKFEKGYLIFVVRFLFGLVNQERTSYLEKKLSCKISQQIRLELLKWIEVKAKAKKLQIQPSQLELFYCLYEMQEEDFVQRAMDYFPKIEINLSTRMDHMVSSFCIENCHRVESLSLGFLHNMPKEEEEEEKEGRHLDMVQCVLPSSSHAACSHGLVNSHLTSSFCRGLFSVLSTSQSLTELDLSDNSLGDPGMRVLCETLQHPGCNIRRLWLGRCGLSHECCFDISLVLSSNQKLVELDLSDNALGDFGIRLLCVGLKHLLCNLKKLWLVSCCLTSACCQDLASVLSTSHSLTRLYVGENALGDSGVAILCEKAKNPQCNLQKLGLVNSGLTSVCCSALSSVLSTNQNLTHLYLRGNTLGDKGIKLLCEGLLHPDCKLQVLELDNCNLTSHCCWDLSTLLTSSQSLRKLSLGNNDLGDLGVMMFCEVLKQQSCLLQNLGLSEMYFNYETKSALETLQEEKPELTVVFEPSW

| SMILES | IC50 (read-out: IC50) [nM] | also measured |
| --- | --- | --- |
| Cc1cc(C2CC2)cc(C)c1-n1cc2c(=O)[nH]c(C3CC3)nc2n1 [Example 21] | 12 | – |
| Cc1cc(OC(F)F)cc(C)c1-n1cc2c(=O)[nH]c([C@@H]3C[C@H]3F)nc2n1 (single isomer, unassigned) [Example 172] | – | IC50: 8 nM |
| Cc1cc(C2CC2)cc(C)c1-n1cc2c(=O)[nH]c(C3(F)CC3)nc2n1 [Example 48] | 23 | – |
| Cc1cc(OC(F)F)cc(C)c1-n1cc2c(=O)[nH]c(C3CC3)nc2n1 [Example 54] | 33 | – |
| Cc1cc(C(C)(F)F)cc(C)c1-n1cc2c(=O)[nH]c(C3CCOCCO3)nc2n1 (single isomer, unassigned) [Example 188] | – | IC50: 190 nM |
| Cc1cc(Br)cc(C)c1-n1cc2c(=O)[nH]c(C(C)(C)F)nc2n1 [Example 70] | 130 | – |
| COC(=O)Cn1c(C)nc2nn(-c3ccc(C)cc3C)cc2c1=O [Example 14] | – | inhibition at 2.4 µM: -13% |
| Cc1cc(C2CC2)cc(C)c1-n1nc2nc(C3CC3)[nH]c(=O)c2c1C#N [Example 87] | 11 | – |
| Cc1ccccc1-n1cc2c(=O)[nH]c(C3=CCCC3)nc2n1 [Example 2] | 1300 | – |
| COCc1c2c(=O)[nH]c(C3CC3)nc2nn1-c1c(C)cc(C2CC2)cc1C [Example 88, 6-cyclopropyl-2-(4-cyclopropyl-2,6-dimethylphenyl)-3-(methoxymethyl)-2,5-dihydro-4H-pyrazolo[3,4-d]pyrimidin-4-one] | 18 | – |
| COCc1cc(C2CC2)ccc1-n1cc2c(=O)[nH]c(C3CC3)nc2n1 [Example 25] | 44 | – |
| COC1CC(c2nc3nn(-c4c(C)cc(Br)cc4C)cc3c(=O)[nH]2)C1 (single isomer, unassigned) [Example 122] | – | IC50: 61 nM |
| Cc1cc(OC(F)F)cc(C)c1-n1cc2c(=O)[nH]c([C@@H]3C[C@H]3F)nc2n1 (racemic) [Example 171] | – | IC50: 24 nM |
| Cc1cc(C2CC2)cc(C)c1-n1cc2c(=O)[nH]c(C(=O)NCC(F)F)nc2n1 [Example 204] | 50 | – |
| COC1(c2nc3nn(-c4c(C)cc(Br)cc4C)cc3c(=O)[nH]2)CCOC1 (racemic) [Example 86] | 350 | – |
| COCc1cc(C2CC2)cc(C)c1-n1cc2c(=O)[nH]c(C3CC3)nc2n1 [Example 58] | 36 | – |
| COC1CC(c2nc3nn(-c4c(C)cc(Br)cc4C)cc3c(=O)[nH]2)C1 (single isomer, unassigned) [Example 121] | – | IC50: 38 nM |
| Cc1cc(OC(F)F)cc(C)c1-n1cc2c(=O)[nH]c(C3(O)CCOCC3F)nc2n1 (single isomer, unassigned) [Example 174] | 30 | – |
| Cc1cc(C(C)(F)F)cc(C)c1-n1cc2c(=O)[nH]c(C3=CCOCC3)nc2n1 [Example 153] | 17 | – |
| Cc1cc(C2CC2(F)F)cc(C)c1-n1cc2c(=O)[nH]c(C3CC3(F)F)nc2n1 (stereo not drawn) [Example 103] | 64 | – |
| Cc1ccc(-n2cc3c(=O)[nH]c(C)nc3n2)c(C)c1 [Example 4] | 540 | – |
| Cc1ccccc1-n1cc2c(=O)[nH]c(C3CCCC3)nc2n1 [Example 1] | 2300 | – |

| SMILES | IC50 (read-out: IC50) [nM] | also measured |
| --- | --- | --- |
| Cc1ccc(-n2cc3c(=O)[nH]c(CN4CCOCC4)nc3n2)c(C)c1 [Example 38] | – | inhibition at 2.4 µM: 40% |
| CCNC(=O)c1nc2nn(-c3c(C)cc(C4CC4)cc3C)cc2c(=O)[nH]1 [Example 205] | 11 | – |
| Cc1cc(Br)cc(C)c1-n1cc2c(=O)[nH]c(C(O)C(F)(F)F)nc2n1 (racemic) [Example 138] | 120 | – |
| COCc1nc2nn(-c3c(C)cc(C(C)(F)F)cc3C)cc2c(=O)[nH]1 [Example 200] | 75 | – |
| Cc1cc(Br)cc(C)c1-n1cc2c(=O)[nH]c(C3(F)CCC3)nc2n1 [Example 68] | 76 | – |
| Cc1cc(Br)cc(C)c1-n1cc2c(=O)[nH]c(C3CC3C(=O)N(C)C)nc2n1 (racemic) [Example 149] | 22 | – |
| Cc1cc(OC(F)F)cc(C)c1-n1cc2c(=O)[nH]c([C@H](C)O)nc2n1 (single isomer, unassigned) [Example 166] | 1300 | – |
| Cc1ccc(-n2cc3c(=O)[nH]c(C4CCS(=O)(=O)C4)nc3n2)c(C)c1 (racemic) [Example 32] | 270 | – |
| Cc1cc(Br)cc(C)c1-n1cc2c(=O)[nH]c(C3CCOCC3)nc2n1 [Example 81] | 4 | – |
| Cc1cc(Br)cc(C)c1-n1cc2c(=O)[nH]c(C3(F)COC3)nc2n1 [Example 108] | 49 | – |
| COCc1nc2nn(-c3ccc(C)cc3C)cc2c(=O)[nH]1 [Example 5] | 580 | – |
| Cc1cc(Br)cc(C)c1-n1cc2c(=O)[nH]c(C3COC3)nc2n1 [Example 77] | 14 | – |
| Cc1ccc(-n2cc3c(=O)n(C)c(C)nc3n2)c(C)c1 [Example 13, 2-(2,4-dimethylphenyl)-5,6-dimethyl-2,5-dihydro-4H-pyrazolo[3,4-d]pyrimidin-4-one] | – | inhibition at 24 µM (test compound at 24 µM): 3% |
| Cc1cc(C(C)(F)F)cc(C)c1-n1cc2c(=O)[nH]c(C3CCOCCO3)nc2n1 (single isomer, unassigned) [Example 187] | – | IC50: 67 nM |
| COC(Cc1nc2nn(-c3c(C)cc(Br)cc3C)cc2c(=O)[nH]1)C(F)(F)F (racemic) [Example 127] | 73 | – |
| Cc1cc(Br)cc(C)c1-n1cc2c(=O)[nH]c([C@H]3CCOCCO3)nc2n1 [Example 185] | 23 | – |
| CNC(=O)c1nc2nn(-c3c(C)cc(C4CC4)cc3C)cc2c(=O)[nH]1 [Example 196] | 22 | – |
| Cc1cc(C2CC2)cc(C)c1-n1cc2c(=O)[nH]c(C3(C)COC3)nc2n1 [Example 44] | 47 | – |
| Cc1cc(C2CC2)cc(C)c1-n1cc2c(=O)[nH]c(C3CC(F)(F)CO3)nc2n1 (racemic) [Example 190] | 41 | – |
| Cc1cc(Br)cc(C)c1-n1cc2c(=O)[nH]c(C3CC3C#N)nc2n1 (racemic) [Example 151] | 17 | – |
| Cc1cc(C2CC2)cc(C)c1-n1cc2c(=O)[nH]c(C3=CCOCC3)nc2n1 [Example 131] | 5 | – |
| COc1cc(C2CC2)cc(C)c1-n1cc2c(=O)[nH]c(C3(F)CCOCC3)nc2n1 [Example 111] | 15 | – |

| SMILES | IC50 (read-out: IC50) [nM] | also measured |
| --- | --- | --- |
| Cc1cc(C(C)(F)F)cc(C)c1-n1cc2c(=O)[nH]c(C3(F)CCOC3)nc2n1 (single isomer, unassigned) [Example 129] | – | IC50: 50 nM |
| Cc1cc(C2CC2)cc(C)c1-n1cc2c(=O)[nH]c(C(C)O)nc2n1 (single isomer, unassigned) [Example 156] | – | IC50: 13 nM |
| Cc1cc(C(C)(C)F)cc(C)c1-n1cc2c(=O)[nH]c(C3(F)CCOCC3)nc2n1 [Example 109] | 17 | – |
| Cc1ccc(-n2cc3c(=O)[nH]c(C4CCO4)nc3n2)c(C)c1 (racemic) [Example 35] | 2100 | – |
| COc1cc(C)c(-n2cc3c(=O)[nH]c(COCc4ccccc4)nc3n2)c(C)c1 [Example 67] | 780 | – |
| Cc1cc(C(C)(F)F)cc(C)c1-n1cc2c(=O)[nH]c([C@H]3C[C@@H]3F)nc2n1 (racemic) [Example 142, 2-[4-(1,1-difluoroethyl)-2,6-dimethylphenyl]-6-[(1RS,2SR)-2-fluorocyclopropyl]-2,5-dihydro-4H-pyrazolo[3,4-d]pyrimidin-4-one] | 17 | – |
| Cc1cc(Br)cc(C)c1-n1cc2c(=O)[nH]c(C3(C#N)CC3)nc2n1 [Example 30] | 280 | – |
| Cc1cc(C2CC2)cc(C)c1-n1cc2c(=O)[nH]c(C3(F)CCOC3)nc2n1 (single isomer, unassigned) [Example 78] | – | IC50: 33 nM |
| COc1cc(C2CC2)ccc1-n1cc2c(=O)[nH]c(C3CC3)nc2n1 [Example 26] | 76 | – |
| Cc1cc(C(C)(F)F)cc(C)c1-n1cc2c(=O)[nH]c(COC(F)F)nc2n1 [Example 202] | 40 | – |
| CC(=O)c1c2c(=O)[nH]c(C3COC3)nc2nn1-c1c(C)cc(Br)cc1C [Example 72] | 57 | – |
| Cc1cc(OC(F)F)cc(C)c1-n1cc2c(=O)[nH]c(C3CC3(F)F)nc2n1 (racemic) [Example 133] | 41 | – |
| Cc1cc(C2CC2)cc(C)c1-n1cc2c(=O)[nH]c(C34CCOCC3C4(F)F)nc2n1 (racemic) [Example 115] | 430 | – |
| Cc1cc(Br)cc(C)c1-n1cc2c(=O)[nH]c(C3CCC(F)(F)CO3)nc2n1 (racemic) [Example 191] | 72 | – |
| Cc1ccc(-n2cc3c(=O)[nH]c(C(F)(F)F)nc3n2)c(C)c1 [Example 7] | – | inhibition at 30 µM (test compound at 30 µM): 44% |
| Cc1cc(OC(F)F)cc(C)c1-n1cc2c(=O)[nH]c(C3COCC3F)nc2n1 (single isomer, unassigned) [Example 182] | – | IC50: 8 nM |
| Cc1cc(OC(F)F)cc(C)c1-n1cc2c(=O)[nH]c(C3CCN(C)CC3)nc2n1 [Example 90] | 68 | – |
| Cc1ccc(-n2cc3c(=O)[nH]c(C4CCCCO4)nc3n2)c(C)c1 (racemic) [Example 40] | 430 | – |
| Cc1cc(C2CC2)cc(C)c1-n1cc2c(=O)[nH]c(CCO)nc2n1 [Example 106] | 28 | – |
| Cc1cc(Br)cc(C)c1-n1cc2c(=O)[nH]c(C3=CCOCC3)nc2n1 [Example 102] | 8 | – |
| O=c1[nH]c(C2CC2)nc2nn(-c3ccc(C4CC4)cc3C(F)(F)F)cc12 [Example 198] | 11 | – |
| Cc1cc(C2CC2)cc(OC(F)F)c1-n1cc2c(=O)[nH]c(C3CC3)nc2n1 [Example 75] | 11 | – |
